Assay results reported in patent US9359371B2, “Bicyclic substituted pyrimidine compounds” (Xuanzhu Pharma Co., Ltd., priority 2012, dated 2016).
Like-named read-outs stand apart in the source and are kept apart here.

Tests used:
PDE-11 = PDE-11 (Homo sapiens (Human), UniProt Q9HCR9); test: Caliper Mobility-Shift PDE-11 Assay; assay type: biochemical; conditions: Table 4; maximum final concentration 10 μM
Method: Experiment 4: Measurement of Pharmacological Activity on PDE-11 Enzyme In Vitro
Method: enzyme assay, Caliper Mobility-Shift PDE-11 Assay
The test compound was accurately weighed, dissolved in DMSO, mixed thoroughly and formulated into 10 mM. The above stock solution was diluted to a concentration of 0.5 mM with DMSO, and then was gradiently diluted by a dilution factor of 3.162, resulting in 11 concentrations in total.
To a 96-well plate, 20 μL of 10 μM FL-cGMP as the substrate was added; then 1 μL solution of the compound in DMSO or DMSO solution without compound was added; and then 29 μL of 0.28 ng/μL PDE-11 enzyme buffer (100 mM Hepes pH 7.5, 5 mM MgCl2, 0.002% Brij-35) was added. The maximum final concentration of the compound was 10 μM. The plate was incubated at 30° C. for 1 h, and 20 μL of 70 μM EDTA was then added to stop the reaction. 26 μL of solution of each well was transferred to a 384-well plate. The conversion was read on a EZ reader II. The Inhibition rate was calculated by the formula below, and used to calculate IC50 by Prism 5.0 Inhibition rate=[Conversion (ZPE)−Conversion (sample)]×100/[Conversion (ZPE)−Conversion (HPE)]
Note: HPE: control without enzyme; ZPE: control without compound

[1] = tested on: length of New Zealand rabbit's penis; test: Pharmacological activity in vivo (oral administration, 70 mg/kg, with SNP), rabbit penis length; set-up: species or system New Zealand rabbits; conditions: Table 8; oral 70 mg/kg; SNP 0.2 mg/kg iv 60 min after; 0-180 min
Method: Experiment 7: Assay of Pharmacological Activity In Vivo (Oral Administration)
After accommodating with the environment, the New Zealand rabbits were grabbed everyday. When the rabbits were accustomed to the repeated grabbing, drug administration was began. The animals were randomly divided into groups by weight, with 6 rabbits of each group. […] The corresponding test compounds were orally administrated to animals of each group. The dosage was 70 mg/kg, and the administration volume was 1 mL/kg. SNP (0.2 mg/kg, 0.5 mL/kg) was injected into the auricular veins of rabbits 60 min after the administration of the test compounds. The length of the rabbit's penis was measured with a digital caliper before and 10, 15, 30, 50, 60, 65, 70, 75, 90, 110, 120 and 180 min after the administration. Touch of the rabbit's penis by the caliper was avoided during the measurements.

PDE-5A enzyme = PDE-5A enzyme (Homo sapiens (Human), UniProt O76074); test: Caliper Mobility-Shift PDE-5A Assay; assay type: biochemical; conditions: Table 1; Avanafil value is the control
[2] = Pharmacokinetics (PK) in SD rats; assay type: in vivo; conditions: rat, 1 mg/kg
[3] = target: PDE-5 enzyme (human blood platelets) (Homo sapiens (Human), UniProt O76074); test: PDE-5 enzyme assay, [3H]cGMP; assay type: biochemical
bovine retinal PDE-6 [4] = test: PDE-6 enzyme assay, [3H]cGMP; assay type: biochemical
Method: (§1) Experiment 3: Measurement of Enzyme Activity on PDE-6 Enzyme In Vitro
(§2) Source of enzyme: PDE-6, bovine retinal PDE-6
(§3) Method: The test compound or solvent was incubated at 25° C. for 15 min with enzyme solution (0.2 μg/mL) in Tris-HCl buffer of pH 7.5. 100 μM cGMP and 0.03 μM [^3H] cGMP were then added to activate the reaction. The mixture was incubated for 20 min. The reaction was stopped at 100° C. By addition of snake venom nucleotidase, the product [^3H] GMP was converted into [^3H] Guanosine, which was separated with AG1-X2 resin. The amount of [^3H] Guanosine was measured.

bovine retinal PDE-6 [5] = target: bovine retinal PDE-6 (Bos taurus (Bovine), UniProt P11541+P23439); test: PDE-6 enzyme assay, [3H]cGMP; assay type: biochemical
bovine retinal PDE-6 (Bos taurus (Bovine), UniProt P11541+P23439), sequence (P11541 whole entry, looked up): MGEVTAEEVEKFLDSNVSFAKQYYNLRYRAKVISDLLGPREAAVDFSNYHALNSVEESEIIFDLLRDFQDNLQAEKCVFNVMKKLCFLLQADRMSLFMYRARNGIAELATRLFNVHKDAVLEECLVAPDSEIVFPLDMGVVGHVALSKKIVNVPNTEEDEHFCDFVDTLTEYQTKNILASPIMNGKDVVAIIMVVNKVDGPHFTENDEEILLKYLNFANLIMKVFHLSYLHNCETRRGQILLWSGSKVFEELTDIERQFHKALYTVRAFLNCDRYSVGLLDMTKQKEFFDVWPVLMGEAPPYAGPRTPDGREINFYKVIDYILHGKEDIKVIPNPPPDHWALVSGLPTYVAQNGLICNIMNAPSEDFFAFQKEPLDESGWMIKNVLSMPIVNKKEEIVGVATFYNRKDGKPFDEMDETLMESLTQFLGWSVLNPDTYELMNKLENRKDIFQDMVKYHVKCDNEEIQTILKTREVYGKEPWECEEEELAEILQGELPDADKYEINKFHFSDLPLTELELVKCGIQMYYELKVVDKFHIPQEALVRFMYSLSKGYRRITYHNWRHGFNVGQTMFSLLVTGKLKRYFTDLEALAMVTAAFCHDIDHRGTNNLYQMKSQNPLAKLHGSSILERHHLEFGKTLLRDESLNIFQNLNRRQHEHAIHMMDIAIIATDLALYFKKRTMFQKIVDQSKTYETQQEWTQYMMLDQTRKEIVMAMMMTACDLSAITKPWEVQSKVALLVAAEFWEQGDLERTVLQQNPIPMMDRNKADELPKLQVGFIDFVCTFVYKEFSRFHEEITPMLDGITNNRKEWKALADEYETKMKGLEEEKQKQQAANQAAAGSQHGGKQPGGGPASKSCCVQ
bovine retinal PDE-6 (Bos taurus (Bovine), UniProt P11541+P23439), sequence (P23439 whole entry, looked up): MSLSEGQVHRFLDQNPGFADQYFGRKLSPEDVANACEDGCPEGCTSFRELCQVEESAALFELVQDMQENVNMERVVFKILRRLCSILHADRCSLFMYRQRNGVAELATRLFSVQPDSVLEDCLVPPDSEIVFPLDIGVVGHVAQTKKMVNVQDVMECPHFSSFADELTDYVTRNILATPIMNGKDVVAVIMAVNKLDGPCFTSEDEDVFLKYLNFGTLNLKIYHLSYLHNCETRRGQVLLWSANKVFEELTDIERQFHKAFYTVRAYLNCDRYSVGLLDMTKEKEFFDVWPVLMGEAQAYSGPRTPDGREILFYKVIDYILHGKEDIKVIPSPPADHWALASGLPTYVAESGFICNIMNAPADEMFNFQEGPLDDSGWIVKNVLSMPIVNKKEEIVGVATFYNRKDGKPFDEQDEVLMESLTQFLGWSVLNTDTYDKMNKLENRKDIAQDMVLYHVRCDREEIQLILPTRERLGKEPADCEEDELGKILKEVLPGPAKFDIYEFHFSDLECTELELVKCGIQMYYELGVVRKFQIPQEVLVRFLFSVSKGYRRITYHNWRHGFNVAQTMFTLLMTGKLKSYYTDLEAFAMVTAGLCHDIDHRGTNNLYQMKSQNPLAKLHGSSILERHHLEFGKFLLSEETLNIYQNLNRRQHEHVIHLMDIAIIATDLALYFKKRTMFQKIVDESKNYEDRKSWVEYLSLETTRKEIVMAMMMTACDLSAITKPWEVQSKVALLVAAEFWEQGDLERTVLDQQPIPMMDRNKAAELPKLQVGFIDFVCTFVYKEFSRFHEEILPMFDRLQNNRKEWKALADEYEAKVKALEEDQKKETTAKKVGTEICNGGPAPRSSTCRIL
Method: as §1, §2, §3

[6] = SD, plasma, po, intragastric administration
[7] = SD, plasma, intravenous injection

PDE-11, sequence (Q9HCR9 whole entry): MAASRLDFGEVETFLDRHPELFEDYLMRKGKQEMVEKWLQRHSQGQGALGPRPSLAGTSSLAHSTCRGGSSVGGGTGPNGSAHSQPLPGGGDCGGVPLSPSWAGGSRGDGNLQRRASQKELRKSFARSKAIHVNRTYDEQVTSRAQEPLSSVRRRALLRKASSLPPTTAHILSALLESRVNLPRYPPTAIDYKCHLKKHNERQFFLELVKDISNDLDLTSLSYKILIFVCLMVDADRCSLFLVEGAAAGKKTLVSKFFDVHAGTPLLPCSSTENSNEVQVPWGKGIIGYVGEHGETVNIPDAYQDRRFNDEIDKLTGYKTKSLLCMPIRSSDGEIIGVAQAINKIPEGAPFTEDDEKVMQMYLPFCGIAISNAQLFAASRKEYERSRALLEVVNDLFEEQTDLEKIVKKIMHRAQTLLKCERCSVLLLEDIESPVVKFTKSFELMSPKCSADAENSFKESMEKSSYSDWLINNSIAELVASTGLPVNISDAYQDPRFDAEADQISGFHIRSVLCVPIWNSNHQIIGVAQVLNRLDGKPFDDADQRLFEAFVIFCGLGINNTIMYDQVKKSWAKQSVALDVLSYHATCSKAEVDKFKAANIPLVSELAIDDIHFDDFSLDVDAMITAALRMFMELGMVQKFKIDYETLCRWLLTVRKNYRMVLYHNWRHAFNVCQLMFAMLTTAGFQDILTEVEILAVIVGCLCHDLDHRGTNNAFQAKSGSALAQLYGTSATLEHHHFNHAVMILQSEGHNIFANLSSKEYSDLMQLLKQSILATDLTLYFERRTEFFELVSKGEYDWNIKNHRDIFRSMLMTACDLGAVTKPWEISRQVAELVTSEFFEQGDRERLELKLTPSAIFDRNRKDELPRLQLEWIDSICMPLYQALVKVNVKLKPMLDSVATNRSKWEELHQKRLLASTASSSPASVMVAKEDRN

## COc1ccc(CNc2nc(N3CC4CC4C3)ncc2C(=O)N[C@H]2CC[C@H](O)CC2)cc1Cl (stereo partly drawn) [Compound 11, 2-(3-azabicyclo[3.1.0]hexan-3-yl)-4-((3-chloro-4-methoxybenzyl)amino)-N-(trans-4-hydroxycyclohexyl)pyrimidine-5-formamide]
PDE-11
  IC50: > 10000 nM
[1]
  AUC of penis length: 540.7 mm × min
PDE-5A enzyme
  IC50: 4.02 nM
[2]; [6]
  AUC(0-inf): 604 ng·h/mL
  Cmax: 133 ng/mL
  Tmax: 1 h
  half-life: 2.03 h
[2]; SD, plasma, po, intragastric administration, read-out: F % (absolute bioavailability)
  bioavailability: 70.4%
[2]; [7]
  AUC(0-inf): 858 ng·h/mL
  half-life: 2.4 h
[2]; intragastric administration
  AUCinf: higher exposure quality (AUC)
  F % (absolute bioavailability): higher exposure quality (AUC) and bioavailability than Compound WO-88
[2]; intravenous injection
  AUCinf: higher exposure quality (AUC)
  Cl_obs: 19.7 mL/min/kg
  T1/2: longer half-life
  Vss_obs: 3.44 L/kg
[3]; Table 2-1, repetition, read-out: IC50 on PDE-5 (repetition of Example 2)
  IC50: 0.41 nM
[3]; Table 2, human blood platelet enzyme, read-out: IC50 on PDE-5
  IC50: 1.31 nM
[3]; Table 4-1, read-out: PDE-5 (IC50 nM)
  IC50: 0.41 nM
Bovine retinal PDE-6 [4]; IC50 for PDE-6/IC50 for PDE-5
  Selectivity (PDE-6/PDE-5): 148
Bovine retinal PDE-6 [4]; selectivity >70 called high
  selectivity on PDE-5 enzyme versus PDE-6 (in words): higher selectivity on PDE-5 enzyme than to PDE-6
Bovine retinal PDE-6 [5]; Table 3, read-out: IC50 on PDE-6
  IC50: 61 nM
Bovine retinal PDE-6 [5]; Table 4-1, read-out: PDE-6 (IC50 nM)
  IC50: 61 nM
